Source: PubChem BioAssay AID1259407 (Chemical Carcinogenesis Research Information System (CCRIS), 2018)
Calls of active or inactive are those of the source. No rule for the calls is given here.

System: CCRIS mutagenicity, Ames/micronucleus/aberration tests
Experiment: CCRIS mutagenicity studies
[1] = Test System: AMES SALMONELLA TYPHIMURIUM, Strain/Indicator: TA98, Metabolic Activation: NONE, Method: PREINCUBATION
[2] = Test System: AMES SALMONELLA TYPHIMURIUM, Strain/Indicator: TA98, Metabolic Activation: RAT, LIVER, S-9, AROCLOR 1254, Method: PREINCUBATION
[3] = Test System: AMES SALMONELLA TYPHIMURIUM, Strain/Indicator: TA100, Metabolic Activation: NONE, Method: PREINCUBATION
[4] = Test System: AMES SALMONELLA TYPHIMURIUM, Strain/Indicator: TA100, Metabolic Activation: RAT, LIVER, S-9, AROCLOR 1254, Method: PREINCUBATION
[5] = Test System: AMES SALMONELLA TYPHIMURIUM, Strain/Indicator: TA102, Metabolic Activation: NONE, Method: PREINCUBATION
[6] = Test System: AMES SALMONELLA TYPHIMURIUM, Strain/Indicator: TA102, Metabolic Activation: RAT, LIVER, S-9, AROCLOR 1254, Method: PREINCUBATION

c1cnccn1
mutagenic call (Test System: AMES SALMONELLA TYPHIMURIUM, Strain/Indicator: TA98, Metabolic Activation: HAMSTER, LIVER, S-9, AROCLOR 1254, Method: STANDARD PLATE): inactive; negative | mutagenic call [1]: inactive; negative | mutagenic call (Test System: AMES SALMONELLA TYPHIMURIUM, Strain/Indicator: TA98, Metabolic Activation: NONE, Method: STANDARD PLATE): inactive; negative | mutagenic call [2]: inactive; negative | mutagenic call (Test System: AMES SALMONELLA TYPHIMURIUM, Strain/Indicator: TA98, Metabolic Activation: RAT, LIVER, S-9, AROCLOR 1254, Method: STANDARD PLATE): inactive; negative | mutagenic call (Test System: AMES SALMONELLA TYPHIMURIUM, Strain/Indicator: TA98, Metabolic Activation: RAT, LIVER, S-9, PCB, Method: PREINCUBATION): inactive; negative | mutagenic call (Test System: AMES SALMONELLA TYPHIMURIUM, Strain/Indicator: TA100, Metabolic Activation: HAMSTER, LIVER, S-9, AROCLOR 1254, Method: STANDARD PLATE): inactive; negative | mutagenic call [3]: inactive; negative | mutagenic call (Test System: AMES SALMONELLA TYPHIMURIUM, Strain/Indicator: TA100, Metabolic Activation: NONE, Method: STANDARD PLATE): inactive; negative | mutagenic call [4]: inactive; negative | mutagenic call (Test System: AMES SALMONELLA TYPHIMURIUM, Strain/Indicator: TA100, Metabolic Activation: RAT, LIVER, S-9, AROCLOR 1254, Method: STANDARD PLATE): inactive; negative | mutagenic call (Test System: AMES SALMONELLA TYPHIMURIUM, Strain/Indicator: TA100, Metabolic Activation: RAT, LIVER, S-9, PCB, Method: PREINCUBATION): inactive; negative | mutagenic call [5]: inactive; negative | mutagenic call [6]: inactive; negative | mutagenic call (Test System: AMES SALMONELLA TYPHIMURIUM, Strain/Indicator: TA1535, Metabolic Activation: HAMSTER, LIVER, S-9, AROCLOR 1254, Method: STANDARD PLATE): inactive; negative | mutagenic call (Test System: AMES SALMONELLA TYPHIMURIUM, Strain/Indicator: TA1535, Metabolic Activation: NONE, Method: STANDARD PLATE): inactive; negative | mutagenic call (Test System: AMES SALMONELLA TYPHIMURIUM, Strain/Indicator: TA1535, Metabolic Activation: RAT, LIVER, S-9, AROCLOR 1254, Method: STANDARD PLATE): inactive; negative | mutagenic call (Test System: AMES SALMONELLA TYPHIMURIUM, Strain/Indicator: TA1537, Metabolic Activation: HAMSTER, LIVER, S-9, AROCLOR 1254, Method: STANDARD PLATE): inactive; negative | mutagenic call (Test System: AMES SALMONELLA TYPHIMURIUM, Strain/Indicator: TA1537, Metabolic Activation: NONE, Method: STANDARD PLATE): inactive; negative | mutagenic call (Test System: AMES SALMONELLA TYPHIMURIUM, Strain/Indicator: TA1537, Metabolic Activation: RAT, LIVER, S-9, AROCLOR 1254, Method: STANDARD PLATE): inactive; negative | mutagenic call (Test System: AMES SALMONELLA TYPHIMURIUM, Strain/Indicator: TA1538, Metabolic Activation: HAMSTER, LIVER, S-9, AROCLOR 1254, Method: STANDARD PLATE): inactive; negative | mutagenic call (Test System: AMES SALMONELLA TYPHIMURIUM, Strain/Indicator: TA1538, Metabolic Activation: NONE, Method: STANDARD PLATE): inactive; negative | mutagenic call (Test System: AMES SALMONELLA TYPHIMURIUM, Strain/Indicator: TA1538, Metabolic Activation: RAT, LIVER, S-9, AROCLOR 1254, Method: STANDARD PLATE): inactive; negative | mutagenic call (Test System: MOUSE LYMPHOMA, Strain/Indicator: L5178Y (TK+/TK-), Metabolic Activation: NONE, Method: SUSPENSION/PLATE): inactive; negative. reevaluation of results: negative | mutagenic call (Test System: MOUSE LYMPHOMA, Strain/Indicator: L5178Y (TK+/TK-), Metabolic Activation: RAT, LIVER, S-9, AROCLOR 1254, Method: SUSPENSION/PLATE): inactive; negative. reevaluation of results: negative

Cc1cnc(C)c(C)n1
mutagenic call [1]: inactive; negative | mutagenic call [2]: inactive; negative | mutagenic call [3]: inactive; negative | mutagenic call [4]: inactive; negative | mutagenic call [5]: inactive; negative | mutagenic call [6]: inactive; negative

Cc1cccc(N)c1N
mutagenic call (Test System: AMES SALMONELLA TYPHIMURIUM, Strain/Indicator: TA98, Metabolic Activation: RAT, LIVER, MICROSOMES, AROCLOR 1254, Method: PREINCUBATION): active; positive | mutagenic call (Test System: AMES SALMONELLA TYPHIMURIUM, Strain/Indicator: TA98, Metabolic Activation: RAT, LIVER, MICROSOMES, DIAMINOTOLUENE, Method: PREINCUBATION): active; positive | mutagenic call (Test System: AMES SALMONELLA TYPHIMURIUM, Strain/Indicator: TA98, Metabolic Activation: RAT, LIVER, MICROSOMES, Method: PREINCUBATION): active; positive

C=CC(C)=O
mutagenic call (Test System: AMES SALMONELLA TYPHIMURIUM, Strain/Indicator: TA98, Metabolic Activation: HAMSTER, LIVER, S-9, AROCLOR 1254 (30%), Method: PREINCUBATION): inactive; negative | mutagenic call [1]: inactive; negative | mutagenic call (Test System: AMES SALMONELLA TYPHIMURIUM, Strain/Indicator: TA98, Metabolic Activation: RAT, LIVER, S-9, AROCLOR 1254 (30%), Method: PREINCUBATION): inactive; negative | mutagenic call (Test System: AMES SALMONELLA TYPHIMURIUM, Strain/Indicator: TA100, Metabolic Activation: HAMSTER, LIVER, S-9, AROCLOR 1254 (30%), Method: PREINCUBATION): active; positive | mutagenic call (Test System: AMES SALMONELLA TYPHIMURIUM, Strain/Indicator: TA100, Metabolic Activation: RAT, LIVER, S-9, AROCLOR 1254 (30%), Method: PREINCUBATION): inactive; negative | mutagenic call (Test System: AMES SALMONELLA TYPHIMURIUM, Strain/Indicator: TA100, Metabolic Activation: RAT, LIVER, S-9, Method: PREINCUBATION): active; positive | mutagenic call (Test System: AMES SALMONELLA TYPHIMURIUM, Strain/Indicator: TA102, Metabolic Activation: S-9, Method: STANDARD PLATE): inactive; negative | mutagenic call (Test System: AMES SALMONELLA TYPHIMURIUM, Strain/Indicator: TA2638, Metabolic Activation: S-9, Method: STANDARD PLATE): active; positive | mutagenic call (Test System: E. COLI, Strain/Indicator: WP2 (PKM101), Metabolic Activation: S-9, Method: STANDARD PLATE): active; positive | mutagenic call (Test System: E. COLI, Strain/Indicator: WP2 UVRA (PKM101), Metabolic Activation: S-9, Method: STANDARD PLATE): active; positive
